According to US6451548B1, “Methods for screening for specific inhibitors of trap and identifying compounds for treatment of diseases or conditions resulting in increased bone resorption using activated TRAP” (Biovitrum AB, priority 1998, dated 2002):
Like-named read-outs stand apart in the source and are kept apart here. Where no end group is shown, it is not given here. [ ]: non-standard residue; d: D form. pY = N[C@@H](Cc1ccc(OP(=O)(O)O)cc1)C(=O)O; pT = C[C@@H](OP(=O)(O)O)[C@H](N)C(=O)O; pS = N[C@@H](COP(=O)(O)O)C(=O)O

Columns and labels:
[1] = target: T1, rat bone TRAP (Rattus norvegicus, UniProt P29288); test: Preincubation with reducing agents, bone TRAP; format: biochemical
T1 construct: from tissue; host or cells: long bones of 3 week old Sprague Dawley rats
T1 sequence (P29288 23-327): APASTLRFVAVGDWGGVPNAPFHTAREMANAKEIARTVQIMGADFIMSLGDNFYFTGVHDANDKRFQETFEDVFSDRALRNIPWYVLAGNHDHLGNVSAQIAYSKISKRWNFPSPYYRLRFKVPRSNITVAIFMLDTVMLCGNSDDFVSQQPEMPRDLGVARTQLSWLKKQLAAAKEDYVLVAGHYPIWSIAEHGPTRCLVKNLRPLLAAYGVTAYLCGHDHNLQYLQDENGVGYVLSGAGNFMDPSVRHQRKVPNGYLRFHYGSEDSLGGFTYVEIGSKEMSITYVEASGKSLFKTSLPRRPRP
T1 sequence (P29288 184-327): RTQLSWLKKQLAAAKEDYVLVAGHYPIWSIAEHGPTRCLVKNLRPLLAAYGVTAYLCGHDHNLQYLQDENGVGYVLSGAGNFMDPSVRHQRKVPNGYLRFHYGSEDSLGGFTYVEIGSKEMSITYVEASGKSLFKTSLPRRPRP
Procedure: (§1) P-nitrophenylphosphosphatase activity was assayed in 96-well plates using the p-nitrophenylphosphate (pNPP) as substrate in the incubation medium (150 μl) containing (final concentrations); 10 mM pNPP, 0.1 M sodium acetate pH 5.8, 0.15 M KCl, 0.1% Triton X-100, 10 mM sodium tartrate, 1 mM ascorbic acid and 0.1 mM FeCl3. The p-nitrophenol liberated after 1 hour of incubation at 37° C. was converted into p-nitrophenylate by the addition of 100 μl of 0.3 M NaOH, and the absorbance was read at 405 nm. For absorbance reading a Spectramax 250 spectrophotometer (Molecular Devices, Sunnyvale, Calif.) was used.
(§2) c) BaculoTRAP digested with papain or trypsin were compared with undigested baculoTRAP and bone TRAP. Ascorbic acid and FeCl3 were used as reducing agents during preincubation of TRAP for indicated time intervals in a total volume of 70 μl with (final concentrations); 1 mM ascorbic acid, 0.1 mM FeCl3, 0.15 M KCl, 10 mM sodium tartrate, 0.1% Triton X-100. Except for a substrate incubation time of 10 min, TRAP activity was measured after the addition of 80 μl of substrate solution as described under Materials and Methods.

[2] = target: T2, intact recombinant TRAP (baculoTRAP) (Rattus norvegicus, UniProt P29288); test: Preincubation with reducing agents, intact recombinant TRAP; format: biochemical; conditions: ascorbate 1 mM in the presence of 0.1 mM FeCl3
T2 construct: made in house
T2 sequence (P29288 23-327): T1 sequence (P29288 23-327)
Procedure: as §1, §2

[3] = target: T3, recombinant rat TRAP produced using Baculovirus expression system (BacTRAP) (Rattus norvegicus, UniProt P29288); test: Substrate specificity of recombinant TRAP (phosphatase assay); format: biochemical
T3 construct: made in house
T3 sequence (P29288 23-327): T1 sequence (P29288 23-327)
Procedure: (§3) The substrates were dissolved in incubation medium containing the same buffer as in the pNPP-assay. […] A phosphate standard curve […] was always run in parallel. […] In order to validate whether the structural alterations induced by proteolytic cleavage of the monomeric TRAP was generally affecting known substrates for TRAP and not restricted to the non-physiological substrate pNPP, we surveyed a number of different phosphoaminoacids, phosphopeptides and the phosphoprotein osteopontin as substrates for the TRAPs (See Table II).

[4] = test system: BacTRAP + trypsin; test: pNPP hydrolysis by trypsin-digested recombinant TRAP; format: biochemical, rat
Procedure: as §1
1 U of p-nitrophenylphosphatase activity corresponds to 1 μmole of p-nitrophenol liberated per minute at 37° C. […] The substrates were dissolved in incubation medium containing the same buffer as in the pNPP-assay. After 1 hour of incubation (final volume 50 μl) at 37° C. the assay was stopped by addition of 50 μl of color reagens (0.12% Malachite-green in 3 M H2SO4/7.5% ammomium molybdate/11% Tween-20; 10:2.5:0.2). […] After color development for 10 min the absorbance at 630 nm was measured using a Spectramax 250 spectrophotometer. […]
(§4) Incubation was performed at room temperature for 1 h with the suspension kept well mixed during the reaction period. The proteolytic digestions above were stopped by centrifugation and the cleavage products of TRAP in the supernatant were further analyzed. […]

[5] = target: T4, BacTRAP + papain (Rattus norvegicus, UniProt P29288); test: pNPP hydrolysis by papain-digested recombinant TRAP; format: biochemical
T4 construct: made in house; host or cells: recombinant Baculovirus-infected cells; then digested with papain-agarose
T4 sequence (P29288 23-327): T1 sequence (P29288 23-327)
T4 sequence (P29288 184-327): T1 sequence (P29288 184-327)
Procedure: as §1
(§5) 1 U of p-nitrophenylphosphatase activity corresponds to 1 μmole of p-nitrophenol liberated per minute at 37° C. […] The substrates were dissolved in incubation medium containing the same buffer as in the pNPP-assay. After 1 hour of incubation (final volume 50 μl) at 37° C. the assay was stopped by addition of 50 μl of color reagens (0.12% Malachite-green in 3 M H2SO4/7.5% ammomium molybdate/11% Tween-20; 10:2.5:0.2). A phosphate standard curve […] was always run in parallel. After color development for 10 min the absorbance at 630 nm was measured using a Spectramax 250 spectrophotometer.
Proteolytic Digestion of TRAP 25 μg baculoTRAP or bone TRAP were digested with […] papain-agarose in 500 μl of incubation solution; 10 mM sodium acetate, pH 4.6, 0.1% Triton X-100 and 2 mM DTT. Incubation was performed at room temperature for 24 h, with constant mixing of the gel. 25 μg baculo TRAP or bone TRAP were digested with 100 μl (5units) trypsin-agarose in 500 μl of incubation solution; 10 mM Tris pH 7.0 and 0.1% Triton X-100.
Incubation was performed at room temperature for 1 h with the suspension kept well mixed during the reaction period. The proteolytic digestions above were stopped by centrifugation and the cleavage products of TRAP in the supernatant were further analyzed. Digestion of baculo TRAP or bone TRAP with cathepsin B were performed at (final concentrations); 10 ng TRAP/μl, 0.4 mU cathepsin B/μl, 2 mM DTT, 50 mM sodium acetate and 1 mM EDTA, pH 5.5. The incubations were performed at 37° C. for 24 h and digestions were stopped with protease inhibitor cocktail Complete according to the instructions of the manufacturer.

[6] = target: T5, BoneTRAP (Rattus norvegicus, UniProt P29288); test: pNPP hydrolysis by bone TRAP; format: biochemical; conditions: BoneTRAP untreated
T5 construct: from tissue; host or cells: long bones of 3 week old Sprague Dawley rats
T5 sequence (P29288 23-327): T1 sequence (P29288 23-327)
T5 sequence (P29288 184-327): T1 sequence (P29288 184-327)
Procedure: Bone TRAP was purified from the long bones of 40 3 week old Sprague Dawley rats. All operations were performed at 4° C. The dissected bones, free from soft tissue, were cut into small pieces and placed in homogenization solution with protease inhibitors (3 ml/g bone); 0.15 M KCl, 0.1% Triton X-100, Pefabloc (1 mg/ml), Pepstatin A (10 μg/ml), E-64 (10 μg/ml) and 5 mM EDTA. A Polytron homogenizer (Brinkman Instruments Westbury, N.Y.) was used for homogenization during 10 seconds, with 1 minute intervals, until a homogenous suspension was achieved. The homogenate was cleared by centrifugation at 3,200×g for 30 min. 5 % protamine sulfate was added dropwise to the supernatant during continous stirring to a final concentration of 0.5%, with further stirring for 30 min. […]
as §1, with “used. […]” for “used.”

[7] = target: T6, TRAP isolated from rat bone (BoneTRAP) (Rattus norvegicus, UniProt P29288); test: Substrate specificity of bone TRAP (phosphatase assay); format: biochemical; conditions: for Ratio Bone/Bac: Kcat/Km BoneTRAP over BacTRAP
T6 construct: from tissue; host or cells: long bones of 3 week old Sprague Dawley rats
T6 sequence (P29288 23-327): T1 sequence (P29288 23-327)
T6 sequence (P29288 184-327): T1 sequence (P29288 184-327)
Procedure: as §3

[8] = test system: BacTRAP + Cath. B; test: pNPP hydrolysis by cathepsin B-digested recombinant TRAP; format: biochemical, rat
Procedure: as §1
1 U of p-nitrophenylphosphatase activity corresponds to 1 μmole of p-nitrophenol liberated per minute at 37° C. […] The substrates were dissolved in incubation medium containing the same buffer as in the pNPP-assay. After 1 hour of incubation (final volume 50 μl) at 37° C. the assay was stopped by addition of 50 μl of color reagens (0.12% Malachite-green in 3 M H2SO4/7.5% ammomium molybdate/11% Tween-20; 10:2.5:0.2). […] After color development for 10 min the absorbance at 630 nm was measured using a Spectramax 250 spectrophotometer.
as §4

[9] = target: T7, recombinant rat TRAP (BacTRAP) (Rattus norvegicus, UniProt P29288); test: pNPP hydrolysis by untreated recombinant TRAP; format: biochemical
T7 construct: made in house
T7 sequence (P29288 23-327): T1 sequence (P29288 23-327)
Procedure: as §1, §5

[10] = Kcat/Km relative to pT = 1.0, BacTRAP
[11] = Kcat/Km relative to pT = 1.0, BoneTRAP

Row | Compound | Ratio Bone/Bac [7] | Ratio (BacTRAP) [3, 10] | Ratio (BoneTRAP) [7, 11] | further results
1 | O=C1O[C@H]([C@@H](O)CO)C(O)=C1O [ascorbate, ascorbic acid] | – | – | – | effect of prolonged pre-incubation on TRAP activity ([1]; ascorbate 1 mM in the presence of 0.1 mM FeCl3): time-dependent inactivation; time to maximal activation ([1]; pre-incubation with ascorbate 1 mM, 0.1 mM FeCl3): ≤ 10 min; effect of prolonged pre-incubation on TRAP activity [2]: did not show this tendency for inactivation
2 | O=[N+]([O-])c1ccc(OP(=O)(O)O)cc1 [pNPP, p-nitrophenylphosphate] | 8.8 | – | – | Ratio (BacTRAP) [3]: 1075; Km [4]: 2100 µM; Km ([5]; pNPP hydrolysis, BacTRAP + papain): 1000 µM; increase in the ratio kcat/Km ([5]; papain-cleaved recombinant TRAP compared to untreated monomeric TRAP): 10 fold; decrease in the Km for pNPP ([5]; papain-cleaved vs untreated recombinant TRAP): 3 fold; optimal pH of pNPP hydrolysis ([5]; recombinant TRAP cleaved with papain): 5.5-6.0 pH; Km [6]: 1000 µM; Ratio (BoneTRAP) [7]: 690; Km [8]: 900 µM; Km ([9]; pNPP hydrolysis, BacTRAP untreated): 3100 µM; pH-optimum of pNPP hydrolysis ([9]; recombinant TRAP as isolated): 4.5-5.0 pH
3 | N[C@@H](COP(=O)(O)O)C(=O)O [pS, phosphoserine] | 22 | 1.2 | 2.0 | –
4 | C[C@@H](OP(=O)(O)O)[C@H](N)C(=O)O [pT, Phosphothreonine] | 14 | 1.0 | 1.0 | –
5 | N[C@@H](Cc1ccc(OP(=O)(O)O)cc1)C(=O)O [pY, phosphotyrosine] | 19 | 250 | 350 | –
6 | DADE(pY)LIPQQG | 18 | 475 | 640 | –
7 | EDEE[pS]EDEE | 4.2 | 50 | 15 | –
8 | END[pY]INASL | 10 | 375 | 280 | –
9 | FRI[pS]HELDS | 15 | 14 | 15 | –
10 | OPN: acidic phospho-seryl protein osteopontin purified from bovine milk | 17 | 1875 | 2360 | –
11 | RRA[pT]VA | 5.0 | 2.8 | 10 | –
